Assay results published in PubChem BioAssay (NCI).
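Compound exposure: 48 hours, 5 concentrations, 96-well plates. Here, GI50 denotes the concentration required for 50% inhibition of growth. TGI: concentration producing complete growth inhibition.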

Columns and labels:
Experiment in all cases: DTP human tumour cell line panel, 48 h
[1] = test system: HT29 colon
[2] = test system: SF-539 CNS
[3] = test system: 786-0 renal
[4] = test system: SNB-75 CNS
[5] = test system: OVCAR-8 ovarian
[6] = test system: OVCAR-4 ovarian
[7] = test system: HL-60(TB) leukemia
[8] = test system: HCT-116 colon
[9] = test system: SW-620 colon
[10] = test system: HOP-92 NSCLC

Structure (SMILES)	TGI [1] [µM]	TGI [2] [µM]	TGI [3] [µM]	TGI [4] [µM]	TGI [5] [µM]	TGI [6] [µM]	TGI [7] [µM]	TGI [8] [µM]	TGI [9] [µM]	TGI [10] [µM]	GI50 [9] [µM]	GI50 [1] [µM]	GI50 [2] [µM]	GI50 [4] [µM]	GI50 [5] [µM]	GI50 [6] [µM]	GI50 [7] [µM]	GI50 [8] [µM]
On1c(-c2ccccc2)c(-c2c(-c3ccccc3)n(O)c3ccccc23)c2ccccc21	> 100	58.8	39.7	94	> 100	> 100	> 100	> 100	–	–	–	–	–	–	–	–	–	–
COC(=O)OC[C@H]1O[C@@H](n2cc(C)c(=O)[nH]c2=O)CC1OC(=O)OC (stereo partly drawn)	> 100	> 100	> 100	> 100	> 100	> 100	> 100	–	> 100	–	–	–	–	–	–	–	–	–
CN(C)[C@@H]1C(=O)C(C(N)=O)=C(O)[C@@]2(O)C(=O)C3=C(O)c4c(O)cccc4C[C@H]3C[C@@H]12	–	3.84	5.92	2.98	9.52	3.26	–	3.28	9.84	5.19	–	–	–	–	–	–	–	–
c1ccc(COc2ccc(C[P+](c3ccccc3)(c3ccccc3)c3ccccc3)cc2)cc1	2.02	3.5	3.57	2.99	2.18	1.84	–	1.68	10.2	0.585	–	–	–	–	–	–	–	–
CSc1nc2c(c(N(C)C)n1)C=Nn1c(nc3ccccc31)S2	> 100	–	> 100	> 100	> 100	> 100	–	> 100	> 100	89.4	–	–	–	–	–	–	–	–
C=C(NC(=O)C(=C)NC(=O)c1csc(C2=NC3c4csc(n4)C4NC(=O)c5csc(n5)C(C(C)(O)C(C)O)NC(=O)C5CSC(=N5)/C(=C/C)NC(=O)C(C(C)O)NC(=O)c5csc(n5)C3(CC2)NC(=O)C(C)NC(=O)C(=C)NC(=O)C(=C)NC(=O)C(C(C)C)NC2C=Cc3c(C(C)O)cc(nc3C2O)C(=O)OC4C)n1)C(N)=O (stereo not drawn)	16	–	11.3	> 100	8.75	> 83.5	–	2.64	> 100	40.1	–	–	–	–	–	–	–	–
O=c1c2cc([N+](=O)[O-])ccc2n2n1Cc1ccccc1CC2	> 100	> 100	> 100	–	> 100	> 100	> 100	> 100	> 100	–	–	–	–	–	–	–	–	–
O=S(=O)(O)c1ccc(NN(c2c(O)ccc3ccccc23)S(=O)(=O)O)cc1	> 100	> 100	> 100	–	> 100	> 100	> 100	> 100	> 100	–	–	–	–	–	–	–	–	–
COc1c2cc(C(C)(C)C)cc1CSCc1cc(C(C)(C)C)cc(c1OC)CCCCC2	> 50	> 50	> 50	> 50	> 50	–	> 50	> 50	> 50	–	–	–	–	–	–	–	–	–
CN1CC(c2ccccc2)=Cc2c1ccc(N)c2N=N	> 100	> 100	> 100	> 100	> 100	> 100	–	> 100	> 100	–	–	–	–	–	–	–	–	–
COc1ccc(C2SCC(=O)N2N=C2NC(=O)CC(=O)N2)cc1 (stereo not drawn)	> 100	> 100	> 100	> 100	> 100	> 100	–	> 100	> 100	> 100	–	–	–	–	–	–	–	–
COC(=O)Cc1c([C@@H]2Nc3ccccc3[C@H]2CC(=O)OC)[nH]c2ccccc12	> 100	67.5	> 100	> 100	> 100	> 100	–	> 100	> 100	> 100	–	–	–	–	–	–	–	–
CCOC(=O)c1nc2c3c(ncn2n1)Oc1c(c(-c2ccccc2)nn1-c1ccccc1)C3c1ccc(OC)c(OC)c1 (stereo not drawn)	> 100	26.8	> 100	66.6	82.5	30.4	–	> 100	> 100	> 100	–	–	–	–	–	–	–	–
O=C(NCc1cn(Cc2cccc(Oc3ccccc3)c2)nn1)c1cccnc1Nc1ccccc1	11.6	8.6	–	9.96	> 100	> 100	19.5	23.5	> 100	–	3.97	3.65	3.1	1.94	4.39	5.42	3.74	3.4
COc1ccc(CN2C(=O)CCC/C=C\[C@H]2CI)cc1	21.5	26.4	27	17.5	27.5	22.8	–	24	23.8	25.3	–	–	–	–	–	–	–	–
C1=C2SSC3=CC=C(SSc4ccc(s4)SSC4=CC=C(SSC(=C1)S2)S4)S3	> 100	–	> 100	> 100	> 100	> 100	–	> 100	> 100	> 100	–	–	–	–	–	–	–	–
CC1(C)CCc2c(cc3c(c2O)CCC(C)(C)O3)O1	> 100	> 100	–	> 100	> 100	> 100	77.9	> 100	> 100	–	–	–	–	–	–	–	–	–
CCCCCCCCCCCCNC(=O)NCC(OCC)OCC	> 10	> 10	> 10	> 10	> 10	> 10	–	> 10	> 10	> 10	–	–	–	–	–	–	–	–
